From ChEMBL document CHEMBL1154659, “Discovery and optimization of chromenotriazolopyrimidines as potent inhibitors of the mouse double minute 2-tumor protein 53 protein-protein interaction” (J Med Chem, 2009)
Activity calls are given as the source filed them. The rule behind the calls is not given here.

What was measured:
[1] = target: Tumour suppressor p53/oncoprotein Mdm2 (Homo sapiens, UniProt Q00987); assay: Inhibition of human MDM2/P53 interaction by HTRF assay; format: protein assay
HCT-116 [2] = assay: Induction of p21 mRNA in human HCT116 cells by RT-PCR; format: functional, cell-based
HCT-116 [3] = assay: Inhibition of human HCT116 cell proliferation after 16 hrs by BrdU assay; format: functional, cell-based
SJSA-1 = assay: Induction of apoptosis in human SJSA1 cells assessed as caspase 3/7 activity after 48 hrs; format: functional, cell-based
HCT-116 [4] = assay: Inhibition of human p53 deficient HCT116 cell proliferation after 16 hrs by BrdU assay; format: functional, cell-based
HCT-116 [5] = assay: Inhibition of human p21 deficient HCT116 cell proliferation after 16 hrs by BrdU assay; format: functional, cell-based

Chain of Tumour suppressor p53/oncoprotein Mdm2 (P04637 whole entry): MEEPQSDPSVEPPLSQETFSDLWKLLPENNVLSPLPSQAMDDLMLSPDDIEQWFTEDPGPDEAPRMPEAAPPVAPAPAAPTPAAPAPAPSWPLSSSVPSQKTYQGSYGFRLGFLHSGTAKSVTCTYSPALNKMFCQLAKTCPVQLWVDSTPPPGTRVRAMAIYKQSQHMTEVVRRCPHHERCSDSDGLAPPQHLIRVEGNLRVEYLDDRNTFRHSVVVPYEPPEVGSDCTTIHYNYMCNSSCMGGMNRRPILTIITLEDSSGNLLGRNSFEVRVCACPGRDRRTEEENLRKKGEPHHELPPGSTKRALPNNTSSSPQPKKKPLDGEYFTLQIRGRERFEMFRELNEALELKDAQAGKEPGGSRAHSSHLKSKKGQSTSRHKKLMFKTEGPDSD
Chain of Tumour suppressor p53/oncoprotein Mdm2 (Q00987 whole entry): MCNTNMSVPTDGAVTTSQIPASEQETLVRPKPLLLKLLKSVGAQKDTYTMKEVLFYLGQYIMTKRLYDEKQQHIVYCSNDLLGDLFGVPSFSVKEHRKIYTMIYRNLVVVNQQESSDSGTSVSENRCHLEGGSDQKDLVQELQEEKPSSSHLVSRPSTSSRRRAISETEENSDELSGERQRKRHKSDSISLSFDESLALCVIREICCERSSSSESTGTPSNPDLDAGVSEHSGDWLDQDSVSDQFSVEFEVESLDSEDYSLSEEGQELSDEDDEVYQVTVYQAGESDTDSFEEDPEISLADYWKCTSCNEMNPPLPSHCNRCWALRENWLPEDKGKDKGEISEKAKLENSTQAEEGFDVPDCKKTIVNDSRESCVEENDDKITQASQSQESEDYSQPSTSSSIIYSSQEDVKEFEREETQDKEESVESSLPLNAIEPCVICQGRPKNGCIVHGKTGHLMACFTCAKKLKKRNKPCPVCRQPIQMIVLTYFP

SMILES | IC50 [1] [nM] | also measured
CN1C2=C(C(c3ccc(Br)cc3)Oc3c(Cl)cc(Cl)cc32)C(c2ccc(Br)cc2)n2ncnc21 (racemic) | > 100000 | 
CN1C2=C(C(c3ccc(F)cc3)Oc3ccccc32)C(c2ccc(F)cc2)n2ncnc21 (racemic) | 14800 | 
CN1C2=C(C(c3ccc(Cl)cc3)Oc3ccccc32)C(c2ccc(Br)cc2)n2ncnc21 (racemic) | 890 | 
CN1C2=C(C(c3ccc(Br)cc3)Oc3ccc(Cl)cc32)C(c2ccc(Br)cc2)n2ncnc21 (racemic) | 1400 | 
CN1C2=C(C(c3ccc(Br)cc3)Oc3c(Cl)cccc32)C(c2ccc(Br)cc2)n2ncnc21 (racemic) | 3500 | 
CN1C2=C(C(c3ccc(Br)cc3)Oc3cccc(F)c32)C(c2ccc(Br)cc2)n2ncnc21 (racemic) | 1720 | 
CN1C2=C(C(c3ccc(Cl)cc3)Oc3ccccc32)C(c2ccc(Cl)cc2)n2ncnc21 (racemic) | 1210 | 
CN1C2=C(C(c3ccc(F)cc3)Oc3ccccc32)C(c2ccc(Br)cc2)n2ncnc21 (racemic) | 6570 | 
Cc1ccc2c(c1)C1=C(C(c3ccc(Br)cc3)O2)C(c2ccc(Br)cc2)n2ncnc2N1C (racemic) | 440 | 
CN1C2=C(C(c3ccc(Br)cc3)Oc3ccccc32)C(c2ccc(F)cc2)n2ncnc21 (racemic) | 1880 | 
CN1C2=C(C(c3ccc(C#N)cc3)Oc3ccccc32)C(c2ccc(Br)cc2)n2ncnc21 (racemic) | 2080 | 
COc1ccc(C2=N[C@@H](c3ccc(Cl)cc3)[C@@H](c3ccc(Cl)cc3)N2C(=O)N2CCNC(=O)C2)c(OC(C)C)c1 |  | Activity (HCT-116 [2]): Dose-dependent effect; Activity (HCT-116 [3]): Active; Activity (SJSA-1): Dose-dependent effect; Activity (HCT-116 [4]): inactive; Activity (HCT-116 [5]): inactive
Cc1ccc(C2Oc3ccccc3C3=C2C(c2ccc(Br)cc2)n2ncnc2N3C)cc1 (racemic) | 4630 | 
Cc1ccc(C2C3=C(c4ccccc4OC3c3ccc(Br)cc3)N(C)c3ncnn32)cc1 (racemic) | 4740 | 
C#Cc1ccc(C2Oc3ccccc3C3=C2C(c2ccc(Br)cc2)n2ncnc2N3C)cc1 (racemic) | 2470 | 
CCc1ccc(C2Oc3ccccc3C3=C2C(c2ccc(Br)cc2)n2ncnc2N3C)cc1 (racemic) | > 100000 | 
Cc1cc2c(cc1F)OC(c1ccc(Br)cc1)C1=C2N(C)c2ncnn2C1c1ccc(Br)cc1 (racemic) | 480 | 
CN1C2=C(C(c3ccc(Br)cc3)Oc3cc(F)ccc32)C(c2ccc(Br)cc2)n2ncnc21 (racemic) | 990 | 
CN1C2=C(C(c3ccc(Br)cc3)Oc3cc(Cl)ccc32)C(c2ccc(Br)cc2)n2ncnc21 (racemic) | 15100 | 
CC#Cc1ccc(C2Oc3ccccc3C3=C2C(c2ccc(Br)cc2)n2ncnc2N3C)cc1 (racemic) | 9070 | 
CCOc1cccc2c1C1=C(C(c3ccc(Br)cc3)O2)C(c2ccc(Br)cc2)n2ncnc2N1C (racemic) | 910 | 
CCc1ccc2c(c1)C1=C(C(c3ccc(Br)cc3)O2)C(c2ccc(Br)cc2)n2ncnc2N1C (racemic) | 3200 | 
Cc1ccc2c(c1)C1=C(C(c3ccc(Br)cc3)O2)C(c2ccc(Br)cc2)n2ncnc2N1C (single isomer, unassigned) |  | Activity (HCT-116 [2]): Dose-dependent effect; Activity (HCT-116 [3]): Active; Activity (SJSA-1): Dose-dependent effect; Activity (HCT-116 [4]): inactive; Activity (HCT-116 [5]): inactive
CN1C2=C(C(c3ccc(Br)cc3)Oc3ccc(F)cc32)C(c2ccc(Br)cc2)n2ncnc21 (racemic) | 1730 | 
COc1c(C)ccc2c1C1=C(C(c3ccc(Br)cc3)O2)C(c2ccc(Br)cc2)n2ncnc2N1C (racemic) | 3940 | 
CN1C2=C(C(c3ccc(Br)cc3)Oc3ccccc32)C(c2ccc(C#N)cc2)n2ncnc21 (racemic) | 5840 | 
CN1C2=C(C(c3ccc(Br)cc3)Oc3ccc(C#N)cc32)C(c2ccc(Br)cc2)n2ncnc21 (racemic) | 3060 | 
